For 23 compounds, EC50 results are on record in patent US8933075B2, “Compounds useful as antiviral agents, compositions, and methods of use” (priority 2010, dated 2015).

The experiment relates to A/Udorn/72 (H3N2) virus. Put plainly: Plaque assay in MDCK cells: EC50 by reduction of plaque number. The experiment is classed as cell-based, influenza virus. As to conditions: MDCK.

SMILES strings stand for the structures. Some results are limits rather than exact numbers.

As for `O=C1/C(=C/c2oc(-c3ccc(F)cc3)cc2CCCCCO)SC(=S)N1C1C2CC3CC(C2)CC1C3` (centres unmarked) [Compound 106], the concentration for a half-maximal effect (EC50) was under 0.1 µM. Take `O=C1/C(=C/c2oc(-c3ccc(F)cc3)cc2CCCCCCO)SC(=S)N1C1CC2CCC1C2` (centres unmarked) [Compound 107]: the EC50 is under 0.1 µM. In turn, `O=C1/C(=C/c2oc(-c3ccc(F)cc3)cc2CCCCCCO)SC(=S)N1C1C2CC3CC(C2)CC1C3` (centres unmarked) [Compound 108] came in with an EC50 of under 0.1 µM.

`COc1cc(OC)cc(-c2cc(CCCCCO)c(/C=C3\SC(=S)N(C4CC5CCC4C5)C3=O)o2)c1` (centres unmarked) [Compound 109] gave a 50% effective concentration (EC50) of under 0.1 µM. For `COc1cc(OC)cc(-c2cc(CCCCCO)c(/C=C3\SC(=S)N(C4C5CC6CC(C5)CC4C6)C3=O)o2)c1` (centres unmarked) [Compound 110], the EC50 was under 0.1 µM. Compound `COc1cc(OC)cc(-c2cc(CCCCCCO)c(/C=C3\SC(=S)N(C4CC5CCC4C5)C3=O)o2)c1` (centres unmarked) [Compound 111] gave a concentration giving a half-maximal response (EC50) of under 0.1 µM. Take `COc1cc(OC)cc(-c2cc(CCCCCCO)c(/C=C3\SC(=S)N(C4C5CC6CC(C5)CC4C6)C3=O)o2)c1` (centres unmarked) [Compound 112]: the EC50 is under 0.1 µM. In the case of `O=C1/C(=C/c2oc(-c3ccc(F)cc3)cc2CCCCO)SC(=S)N1C1CC2CCC1C2` (centres unmarked) [Compound 115], the EC50 is under 0.1 µM. `O=C1/C(=C/c2oc(-c3ccc(F)cc3)cc2CCCCO)SC(=S)N1C1C2CC3CC(C2)CC1C3` (centres unmarked) [Compound 116] showed a half-maximal effective concentration (EC50) of under 0.1 µM.

Compound `NCCCc1cc(-c2ccc(F)cc2)oc1/C=C1\SC(=S)N(C2C3CC4CC(C3)CC2C4)C1=O` (centres unmarked) [Compound 126] gave an EC50 of under 0.1 µM. Then `NCCCc1cc(-c2ccc(F)cc2)oc1/C=C1\SC(=S)N(C2CC3CCC2C3)C1=O` (centres unmarked) [Compound 127], with under 0.1 µM; and `COc1cc(OC)cc(-c2cc(/C=C/C(=O)O)c(/C=C3\SC(=S)N(C4C5CC6CC(C5)CC4C6)C3=O)o2)c1` (centres unmarked) [Compound 131], with under 0.1 µM; and `COc1cc(OC)cc(-c2cc(CCC(=O)O)c(/C=C3\SC(=S)N(C4CC5CCC4C5)C3=O)o2)c1` (centres unmarked) [Compound 132], with under 0.1 µM. As for `COc1cc(OC)cc(-c2cc(CCCN(CC(=O)O)CC(=O)O)c(/C=C3\SC(=S)N(C4CC5CCC4C5)C3=O)o2)c1` (centres unmarked) [Compound 133], the concentration for a half-maximal effect (EC50) fell in the range of 0.1 to 0.25 µM. In the case of `COc1cc(OC)cc(-c2cc(CCCC(C(=O)O)C(=O)O)c(/C=C3\SC(=S)N(C4CC5CCC4C5)C3=O)o2)c1` (centres unmarked) [Compound 134], the EC50 is under 0.1 µM.

Regarding `COc1cc(OC)cc(-c2cc(CCCC(C(=O)O)C(=O)O)c(/C=C3\SC(=S)N(C4C5CC6CC(C5)CC4C6)C3=O)o2)c1` (centres unmarked) [Compound 135], the 50% effective concentration (EC50) was 0.1 to 0.25 µM. As to `COc1cc(O)cc(-c2cc(CCCC(C(=O)O)C(=O)O)c(/C=C3\SC(=S)N(C4C5CC6CC(C5)CC4C6)C3=O)o2)c1` (centres unmarked) [Compound 136], the EC50 was 0.1 to 0.25 µM. Compound `COc1cc(OC)cc(-c2cc(CCCOC(=O)[C@H](CCCNC(=O)OC(C)(C)C)NC(=O)OC(C)(C)C)c(/C=C3\SC(=S)N(C4CC5CCC4C5)C3=O)o2)c1` (some centres unmarked) [Compound 139] registered an EC50 of under 0.1 µM. The compound `COc1cc(OC)cc(-c2cc(CCCOC(=O)[C@H](CC(C)C)NC(=O)OCC3c4ccccc4-c4ccccc43)c(/C=C3\SC(=S)N(C4CC5CCC4C5)C3=O)o2)c1` (some centres unmarked) [Compound 141] returned an EC50 of 0.25 to 1 µM.

Consider `COc1cc(OC)cc(-c2cc(CCCOC(=O)[C@H](Cc3ccccc3)NC(=O)OC(C)(C)C)c(/C=C3\SC(=S)N(C4CC5CCC4C5)C3=O)o2)c1` (some centres unmarked) [Compound 142], for which the 50% effective concentration (EC50) was under 0.1 µM. `COc1cc(OC)cc(-c2cc(CCCOC(=O)[C@@H](NC(=O)OC(C)(C)C)c3ccccc3)c(/C=C3\SC(=S)N(C4CC5CCC4C5)C3=O)o2)c1` (some centres unmarked) [Compound 146] yielded an EC50 of under 0.1 µM. For `CC(C)(C)OC(=O)N[C@@H](CC(N)=O)C(=O)OCCCc1cc(-c2ccc(F)cc2)oc1/C=C1\SC(=S)N(C2CC3CCC2C3)C1=O` (some centres unmarked) [Compound 147], the EC50 was under 0.1 µM. Then `CC(C)(C)OC(=O)N[C@@H](CC(N)=O)C(=O)OCCCc1cc(-c2ccc(Cl)cc2)oc1/C=C1\SC(=S)N(C2CC3CCC2C3)C1=O` (some centres unmarked) [Compound 148], with under 0.1 µM.

Broadly, the EC50 is the concentration that produces a half-maximal response. Lower therefore signals higher potency in that assay.
